# Assay results published in patent US10077261B2, “Imidazolin-5-one derivative useful as FASN inhibitors for the treatment of cancer” (Janssen Pharmaceutica NV, priority 2012, dated 2018).
# What was measured:
# [1] = target: T1, hFASN enzyme (full length) (Homo sapiens, UniProt P49327); assay: Fatty Acid Synthase (FASN) inhibition scintillation proximity assay; format: biochemical; conditions: for inhibition at 10 µM: read-out: Human FASN % inhibition @ 10 μM, 10 μM test compound; for IC50: read-out: Human FASN pIC50 (converted)
# T1 construct: 10 μL hFASN enzyme (full length, 300 ng, purified in house); made in house
# T1 sequence (P49327 whole entry): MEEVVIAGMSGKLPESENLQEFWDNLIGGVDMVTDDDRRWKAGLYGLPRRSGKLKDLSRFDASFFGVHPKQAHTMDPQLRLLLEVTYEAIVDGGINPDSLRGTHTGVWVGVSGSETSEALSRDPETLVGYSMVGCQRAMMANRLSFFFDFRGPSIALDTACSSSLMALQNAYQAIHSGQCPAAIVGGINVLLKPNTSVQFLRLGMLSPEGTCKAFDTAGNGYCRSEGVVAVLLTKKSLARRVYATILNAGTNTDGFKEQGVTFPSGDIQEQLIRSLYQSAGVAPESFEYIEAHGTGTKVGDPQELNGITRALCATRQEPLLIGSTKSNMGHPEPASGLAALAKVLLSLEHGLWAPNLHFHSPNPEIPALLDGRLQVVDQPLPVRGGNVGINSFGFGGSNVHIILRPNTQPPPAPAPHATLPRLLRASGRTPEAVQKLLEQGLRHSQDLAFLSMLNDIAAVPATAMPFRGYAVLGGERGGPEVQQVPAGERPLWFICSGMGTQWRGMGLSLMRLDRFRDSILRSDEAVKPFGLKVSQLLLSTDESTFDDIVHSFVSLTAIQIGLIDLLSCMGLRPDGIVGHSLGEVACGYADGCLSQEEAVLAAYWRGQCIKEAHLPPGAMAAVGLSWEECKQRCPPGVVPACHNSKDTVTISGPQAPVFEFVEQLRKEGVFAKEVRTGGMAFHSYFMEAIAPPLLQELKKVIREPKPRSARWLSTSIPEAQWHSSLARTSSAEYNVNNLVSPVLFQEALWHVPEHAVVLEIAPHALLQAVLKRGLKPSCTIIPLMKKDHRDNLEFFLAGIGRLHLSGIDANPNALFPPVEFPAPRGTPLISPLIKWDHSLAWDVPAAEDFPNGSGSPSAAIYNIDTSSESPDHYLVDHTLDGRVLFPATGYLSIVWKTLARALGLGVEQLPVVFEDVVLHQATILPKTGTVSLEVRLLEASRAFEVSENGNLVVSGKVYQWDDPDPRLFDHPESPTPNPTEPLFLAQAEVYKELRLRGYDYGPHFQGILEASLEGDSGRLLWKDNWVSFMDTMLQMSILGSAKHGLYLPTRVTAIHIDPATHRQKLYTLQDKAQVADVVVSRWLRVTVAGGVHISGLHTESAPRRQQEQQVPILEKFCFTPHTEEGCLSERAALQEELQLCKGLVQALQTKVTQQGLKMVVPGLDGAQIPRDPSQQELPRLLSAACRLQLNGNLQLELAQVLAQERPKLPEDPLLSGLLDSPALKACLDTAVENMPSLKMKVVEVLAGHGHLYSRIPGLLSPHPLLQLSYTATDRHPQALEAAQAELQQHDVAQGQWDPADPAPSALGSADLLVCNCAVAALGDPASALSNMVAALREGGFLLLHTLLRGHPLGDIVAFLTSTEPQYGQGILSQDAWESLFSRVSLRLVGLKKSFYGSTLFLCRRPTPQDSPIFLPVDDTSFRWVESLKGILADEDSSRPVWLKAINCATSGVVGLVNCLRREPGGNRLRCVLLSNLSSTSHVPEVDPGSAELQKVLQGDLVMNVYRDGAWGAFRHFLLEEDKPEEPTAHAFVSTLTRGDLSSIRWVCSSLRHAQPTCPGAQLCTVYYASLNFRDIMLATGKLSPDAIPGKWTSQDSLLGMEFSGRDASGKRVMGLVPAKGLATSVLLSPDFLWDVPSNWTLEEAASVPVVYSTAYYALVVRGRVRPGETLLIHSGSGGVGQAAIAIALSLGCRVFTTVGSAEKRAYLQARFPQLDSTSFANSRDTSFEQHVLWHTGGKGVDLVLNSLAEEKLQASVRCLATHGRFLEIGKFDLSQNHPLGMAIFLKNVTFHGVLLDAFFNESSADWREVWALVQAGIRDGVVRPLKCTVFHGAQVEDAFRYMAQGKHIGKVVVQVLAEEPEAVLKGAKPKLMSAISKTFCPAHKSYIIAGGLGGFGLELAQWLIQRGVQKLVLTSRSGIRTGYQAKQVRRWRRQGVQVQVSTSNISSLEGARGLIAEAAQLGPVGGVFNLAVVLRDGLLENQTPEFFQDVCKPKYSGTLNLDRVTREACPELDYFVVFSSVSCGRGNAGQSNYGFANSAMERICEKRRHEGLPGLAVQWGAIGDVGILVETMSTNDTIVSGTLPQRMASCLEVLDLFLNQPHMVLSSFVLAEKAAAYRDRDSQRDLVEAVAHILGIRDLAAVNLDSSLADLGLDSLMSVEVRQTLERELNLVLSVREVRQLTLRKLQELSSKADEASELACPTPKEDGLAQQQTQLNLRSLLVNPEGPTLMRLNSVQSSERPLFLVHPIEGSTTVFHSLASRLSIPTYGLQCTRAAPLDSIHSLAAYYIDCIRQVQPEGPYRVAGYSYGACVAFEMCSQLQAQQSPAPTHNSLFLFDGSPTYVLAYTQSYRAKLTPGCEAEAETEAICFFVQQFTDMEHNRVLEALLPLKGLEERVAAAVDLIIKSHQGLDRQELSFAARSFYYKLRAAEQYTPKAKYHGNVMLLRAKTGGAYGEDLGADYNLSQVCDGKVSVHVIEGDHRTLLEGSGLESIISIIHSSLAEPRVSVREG
# How it was run: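 Purified full-length hFASN (300 ng) converts ^3H-acetyl-CoA plus malonyl-CoA to ^3H-palmitate in 100 mM KH2PO4 pH 7.5, 1 mM DTT; compounds tested at 0.01–30 μM. Product captured on streptavidin imaging beads and read by LEADseeker at 610 nm after ≥24 h; 4-parameter logistic fit versus controls.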
# A2780 ovarian cells [2] = assay: A2780 ovarian cell proliferation assay in lipid reduced medium, with palmitate (MTT); format: cell-based; conditions: Homo sapiens, A2780, 96 h; read-out: pIC50 A2780 Ovarian Cell, With Palmitate (converted)
# How it was run: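 Seeded cells were switched next day to lipid-reduced serum, exposed to compound and 25 μM palmitate complexed with fatty-acid-free BSA, and incubated 96 h. Proliferation was then determined by MTT absorbance at 544 nm, with a best-fit curve of signal against concentration.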
# A2780 ovarian cells [3] = assay: A2780 ovarian cell proliferation assay in lipid reduced medium, without palmitate (MTT); format: cell-based; conditions: Homo sapiens, A2780, 96 h; read-out: pIC50 A2780 Ovarian Cell, Without Palmitate (converted)
inhibition at 10 µM [1] [%],IC50 [1] [µM],IC50 (A2780 ovarian cells [2]) [µM],IC50 (A2780 ovarian cells [3]) [µM],SMILES
34,> 10,> 10,9.55,"CS(=O)(=O)c1cccc(-c2ccc(C3=NC4(CC4)C(=O)N3CC3CN(C(=O)C4CC4)C3)c(F)c2)c1 [compound 777, 6-((1-(cyclopropanecarbonyl)azetidin-3-yl)methyl)-5-(3-fluoro-3′-(methylsulfonyl)-[1,1′-biphenyl]-4-yl)-4,6-diazaspiro[2.4]hept-4-en-7-one]"
14,> 10,> 10,5.89,"CC(C)c1ccc(-c2ccc(C3=NC4(CC4)C(=O)N3CC3CN(C(=O)C4CC4)C3)cc2)cn1 [compound 784, 6-((1-(cyclopropanecarbonyl)azetidin-3-yl)methyl)-5-(4-(6-isopropylpyridin-3-yl)phenyl)-4,6-diazaspiro[2.4]hept-4-en-7-one]"
24,> 10,~6.17,3.89,Cc1cc(-c2ccc(-c3ccnn3CC(C)C)cc2)ccc1C1=NC2(CC2)C(=O)N1CC1CN(C(=O)C2(C)CC2)C1 [compound 785]
31,> 10,5.89,6.76,"Cc1cc(-c2ccc(-c3ccnn3CC3CC3)cc2)ccc1C1=NC2(CC2)C(=O)N1CC1CN(C(=O)C2(C)CC2)C1 [compound 786, 5-(4′-(1-(cyclopropylmethyl)-1H-pyrazol-5-yl)-3-methyl-[1,1′-biphenyl]-4-yl)-6-((1-(1-methylcyclopeopanecarbonyl)azetidin-3-yl)methyl)-4,6-diazaspiro[2.4]hept-4-en-7-one]"
-2,> 10,> 6.17,> 6.17,"Cc1cc(-c2ccc(C3=NC4(CC4)C(=O)N3CC3CN(C(=O)C4CC4)C3)cc2)nc2cc(Br)ccc12 [compound 791, 5-(4-(7-bromo-4-methylquinolin-2-yl)phenyl)-6-((1-(cyclopropanecarbonyl)azetidin-3-yl)methyl)4,6-diazaspiro[2.4]hept-4-en-7-one]"
38,> 10,> 10,> 10,"Cn1ncc2nc(-c3ccc(C4=NC5(CC5)C(=O)N4CC4CN(C(=O)C5CC5)C4)cc3)ccc21 [compound 792, 6-((1-(cyclopropanecarbonyl)azetidin-3-yl)methyl)-5-(4-(1-methyl-1H-pyrazolo[4,3-b]pyridin-5-yl)phenyl)-4,6-diazaspiro[2.4]hept-4-en-7-one]"
13,> 10,> 10,> 10,"Cc1nnc2ccc(-c3ccc(C4=NC5(CC5)C(=O)N4CC4CN(C(=O)C5CC5)C4)cc3)cn12 [compound 793, 6-((1-(cyclopropanecarbonyl)azetidin-3-yl)methyl)-5-(4-(3-methyl-[1,2,4]triazolo[4,3-a]pyridin-6-yl)phenyl)-4,6-diazaspiro[2.4]hept-4-en-7-one]"
-15,> 10,> 10,> 10,"CC(C)(O)c1ccc(-c2ccc(C3=NC4(CC4)C(=O)N3CC3CN(C(=O)C4CC4)C3)cc2)nc1 [compound 794, 6-((1-(cyclopropanecarbonyl)azetidin-3-yl)methyl)-5-(4-(5-(2-hydroxypropan-2-yl)pyridin-2-yl)phenyl)-4,6-diazaspiro[2.4]hept-4-en-7-one]"
34,> 10,> 10,> 10,"CCCc1ccc(-c2ccc(C3=NC4(CC4)C(=O)N3CC3CN(C(=O)C4CC4)C3)cc2)cn1 [compound 795, 6-((1-(cyclopropanecarbonyl)azetidin-3-yl)methyl)-5-(4-(6-propylpyridin-3-yl)phenyl)-4,6-diazaspiro[2.4]hept-4-en-7-one]"
8,> 10,> 10,> 10,"COC(=O)N1CC2(C1)N=C(c1ccc(-c3ccc(-c4cnn(C)c4)cc3)cc1)N(C[C@@H]1CCN(S(C)(=O)=O)C1)C2=O [compound 891, (S)-methyl 6-(4′-(1-methyl-1H-pyrazol-4-yl)-[1,1′-biphenyl]-4-yl)-7-((1-(methylsulfonyl)pyrrolidin-3-yl)methyl)-8-oxo-2,5,7-triazaspiro]3.4[ovt-5-ene-2-carboxylate]"
10,> 10,> 10,> 10,"CS(=O)(=O)N1CCC(CN2C(=O)C3(CCOC3)N=C2c2ccc(-c3ccc4cccnc4c3)cc2)C1 (stereo not shown) [compound 896, 3-((1-(methylsulfonyl)pyrrolidin-3-yl)methyl)-2-(4-(quinolin-7-yl)phenyl)-7-oxa-1,3-diazaspiro[4.4]non-1-en-4-one]"
6,> 10,> 10,> 10,"CS(=O)(=O)N1CC(CN2C(=O)C3(CCOC3)N=C2c2ccc(-c3ccc4occc4c3)cc2)C1 (stereo not shown) [compound 898, 2-(4-(benzofuran-5-yl)phenyl)-3-((1-(methylsulfonyl)azetidin-3-yl)methyl)-7-oxa-1,3-diazaspiro[4.4]non-1-en-4-one]"
2,> 10,> 10,> 10,"Cn1cc(-c2ccc(-c3ccc(C4=NC5(CCOCC5)C(=O)N4C[C@@H]4CCN(S(C)(=O)=O)C4)cc3)cc2)cn1 [compound 918, (S)-2-(4′-(1-metrhyl-1H-pyrazol-4-yl)-[1,1′-biphenyl]-4-yl)-3-((1-(methylsulfonyl)pyrrolidin-3-yl)methyl)-8-oxa-1,3-diazaspiro[4.5]dec-1-en-4-one]"

# The remaining lines, values behind:
SMILES,inhibition at 10 µM [1] [%],IC50 [1] [µM],IC50 (A2780 ovarian cells [2]) [µM],IC50 (A2780 ovarian cells [3]) [µM]
"Cc1cc(-c2nc3cc(Br)ccc3cc2C)ccc1C1=NC2(CC2)C(=O)N1CC1CN(C(=O)C2(C)CC2)C1 [compound 787, 5-(4-(7-bromo-3-methylquinolin-2-yl)-2-methylphenyl)-6-((1-(1-methylcyclopropanecarbonyl)azetidin-3-yl)methyl)-4,6-diazaspiro[2.4]hept-4-en-7-one]",38,> 10,> 10,9.33
"O=C(C1CC1)N1CC(CN2C(=O)C3(CC3)N=C2c2ccc(-c3ccc4c(cnn4C4COC4)c3)cc2)C1 [compound 788, 6-((1-(cyclopropanecarbonyl)azetidin-3-yl)methyl)-5-(4-(1-(oxetan-3-yl)-1H-indazol-5-yl)phenyl)-4,6-diazaspiro[2.4]hept-4-en-7-one]",14,> 10,> 10,> 10
"O=C(C1CC1)N1CC(CN2C(=O)C3(CC3)N=C2c2ccc(-c3ccc4c(cnn4C4COC4)c3)cc2F)C1 [compound 789, 6-((1-(cyclopropanecarbonyl)azetidin-3-yl)methyl)-5-(2-fluoro-4-(1-(oxetan-3-yl)-1H-indazol-5-yl)phenyl)-4,6-diazaspiro[2.4]hept-4-en-7-one]",26,> 10,> 10,> 10
"Cc1ccc2c(-c3ccc(C4=NC5(CC5)C(=O)N4CC4CN(C(=O)C5CC5)C4)cc3)cccc2n1 [compound 790, 6-((1-(cyclopropanecarbonyl)azetidin-3-yl)methyl)-5-(4-(2-methy7lquinolin-5-yl)phenyl)-4,6-diazaspiro[2.4]jept-4-en-7-one]",47,> 10,> 10,> 10
"O=C(N1CC(CN2C(=O)C3(CCOC3)N=C2c2ccc(-c3ccc4occc4c3)cc2)C1)C(F)(F)F (stereo not shown) [compound 897, 2-(4-(benzofuran-5-yl)phenyl)-3-((1-(2,2,2-trifluoroacetyl)azetidin-3-yl)methyl)-7-oxa-1,3-diazaspiro[4.4]non-1-en-4-one]",15,> 10,> 10,> 10
"Cn1cc(-c2ccc(-c3ccc(C4=NC5(CCOC5)C(=O)N4CC4CN(C(=O)C(F)(F)F)C4)cc3)cc2)cn1 (stereo not shown) [compound 899, 2-(4′-(1-methyl-1H-pyrazol-4-yl)-[1,1′-biphenyl]-4-yl)-3-((1-(2,2,2-trifluoroacetyl)azetidin-3-yl)methyl)-7-oxa-1,3-diazaspiro[4.4]non-1-en-4-one]",-10,> 10,> 10,> 10
"COC(=O)N1CC2(C1)N=C(c1ccc(-c3ccc4cccnc4c3)cc1)N(C[C@@H]1CCN(S(C)(=O)=O)C1)C2=O [compound 900, (S)-methyl 7-((1-(methylsulfionyl)pyrrolidin-3-yl)methyl)-8-oxo-6-(4-(quinolin-7-yl)phenyl)-2,5,7-triazaspiro[3.4]oct-5-ene-2-carboxylate]",9,> 10,> 10,> 10
"COC(=O)N1CC(CN2C(=O)C3(CCOCC3)N=C2c2ccc(-c3ccc4cccnc4c3)cc2)C1 [compound 922, methyl 3-((4-oxo-2-(4-(quinolin-7-yl)phenyl)-8-oxa-1,3-diazaspiro[4.5]dec-1-en-3-yl)methyl)azetidine-1-carboxylate]",38,> 10,> 10,> 10
"COC(=O)N1CC2(C1)N=C(c1ccc(-c3ccc4c(cnn4C)c3)cc1)N(C[C@@H]1CCN(C(=O)c3nccs3)C1)C2=O [compound 923, (R)-methyl 6-(4-(1-methyl-1H-indazol-5-yl)phenyl)-8-oxo-7-((1-(thiazole-2-carbonyl)pyrrolidin-3-yl)methyl)-2,5,7-triazaspiro[3.4]oct-5-ene-2-carboxylate]",27,> 10,> 10,> 10
